Like-named read-outs stand apart in the source and are kept apart here.
Assays:
[1] = Thermogravimetric analysis (TGA); format: physicochemical; conditions: 5 °C min^−1, argon
Experimental: Thermogravimetric analyses were performed over a temperature range from room temperature to 500 °C in a thermogravimetric analyzer from Setaram Labsys EVO (France) with a weighing precision of ±0.01%. Each run was conducted at a heating rate of 5 °C min^−1, under a highly pure argon atmosphere purged at 50 mL min^−1, with a mass sample between 8 and 10 mg.

[2] = Solubility assays in water, PBS and serum; format: physicochemical
Experimental: All the assays were carried out in triplicate. The average and standard deviation were calculated for the three replicates.

[3] = Permeability assays, Franz-type diffusion cell; set-up: Kd (partition coefficient): unit not given beside the values
Description: In this context, a polyethersulphone (PES-U) membrane was selected for the determination of these two parameters. The diffusion coefficient is associated with the amount of API diffused with time. Therefore, the increase in the diffusion coefficient is proportional to the speed of the drug's diffusion through the membrane. Another aspect to consider is that the solubility of the drug is proportional to the driving force. […] The chosen membrane was polyethersulphone (PES-U) with 150 μm thickness and 0.45 μm pore size (Sartorius Stedim Biotech, Göttingen, Germany), which was placed between the two compartments and held with a stainless-steel clamp. The receptor compartment was filled with PBS solution, and air bubbles were removed. […] The determination of the API diffused was performed by HPLC. The assays were performed with three replicates. […] The cumulative mass of drug diffused to the receptor compartment was determined taking into consideration the replacement of aliquots with fresh medium and the dilution derived from the addition of fresh buffer. […] According to a derived solution of Fick's law of diffusion, it is possible to determine the diffusion coefficient, D, of the API through the membrane. […] Cf and Ci are the final and initial concentrations in the receptor compartment, and Ct is the concentration in the receptor compartment at time t.

L929 cells = assay: Cell viability assay (MTS, CellTiter 96); format: cell-based; conditions: 24 h exposure, 50 and 75 ppm
Experimental: The biological effect of compounds was evaluated on the L929 cell line (DSMZ—German Collection of Microorganisms and Cell Culture GmbH). […] Cells only incubated with complete media were used as negative control and DMSO was chosen […]. […] The amount of formazan product was measured in a microplate reader (VICTOR Nivo TM, PerkinElmer, Waltham, MA, USA) at 490 nm, as absorbance is directly proportional to the number of viable cells in culture. Cell viability was expressed as the percentage of cells exposed to extracts vs. controls. Statistical analysis was performed using GraphPad Prism 7.00 software. A two-way ANOVA test was performed as well as Tukey’s multiple comparison test.

[4] = PES-U membrane, 37 °C, 50 mg L^−1, 8-hour assay

| ΔTons, onset shifted to lower temperatures vs neat [Na][T4] [1] | Solubility in PBS 37 °C ([2]; PBS, 37 °C) | Solubility in Serum 37 °C ([2]; serum, 37 °C) | Solubility in Water 25 °C ([2]; water, 25 °C) | Solubility in Water 37 °C ([2]; water, 37 °C) | Kd (partition coefficient) [3] | Permeability [3] | Compound | onset of the major weight decrease (degradation) [1] | Cell viability / cytotoxicity (L929 cells) | Diffusion [3, 4] | Permeability [3, 4] |
| --- | --- | --- | --- | --- | --- | --- | --- | --- | --- | --- | --- |
| ~ 30 °C | 324 ± 4 µg/mL | 321 ± 7 µg/mL | 277 ± 34 µg/mL | 379 ± 22 µg/mL | 0.45 | 1.02 (×10^−5) cm s^−1 | 1-(2-Hydroxyethyl)-3-Methylimidazolium Levothyroxine [[C2OHMiM][T4]] |  |  |  |  |
|  |  |  |  |  |  |  | NC(Cc1cc(I)c(Oc2cc(I)c(O)c(I)c2)c(I)c1)C(=O)[O-].[Na+] (centres unmarked) [[Na][T4], Levothyroxine sodium salt pentahydrate, reference compound] | 175 °C | without losing their viability | 0.49 (×10^−6) cm^2 s^−1 | 2.04 (×10^−5) cm s^−1 |

Source: article PMC10218257, “Ionic Levothyroxine Formulations: Synthesis, Bioavailability, and Cytotoxicity Studies” (International Journal of Molecular Sciences, 2023)
